Assays:
[1] = molecular target: T1, hSkM1 isoform of Na+ channels (Homo sapiens, UniProt P35499); assay: Electrophysiological assay, whole-cell patch-clamp recordings of voltage-sensitive Na+ currents; type: cell-based; details: HEK-293 cells stably expressing hSkM1
T1 construct: expressed in transfected cells
Experimental: Cell preparalion. HEK-293 cells stably expressing the hSkM1 isoform of Na^+ channels (generous gift from Dr. A. L. George, Vanderbilt University Medical School) were cultured using standard techniques, as described previously (Verdoorn, T. A, et al., Neuron 4:919-928 (1990)). For electrophysiology, cells were plated onto 35 mm Petri dishes (pre-coated with poly-D-lysine) at a density of 1:40 on the day of re-seeding from confluent cultures. Our experience has been that cells are suitable for recordings for 2-3 days after plating.
Patch-clamp recordings of voltage-sensitive Na^+ currenis. Whole-cell voltage-clamp recordings were made using conventional patch-clamp techniques (Hamill et al, Pfluegers Arch. 391:85-100 (1981)) with an Axopatch 200A amplifier (Axon Instruments, Foster City, Calif.). Recordings were made within 2-3 hours after neuron dissociation. The recording chamber was continuously superfused with the external solution (150 mM NaCl, 5.4 mM KCl, 1.8 mM CaCl2, 1 mM MgCl2, 10 mM HEPES, 10 mM glucose, pH 7.4 (NaOH)) at a speed of about 1 mL/min. Recording pipettes were pulled from thick-walled capillaries (WPI, Sarasota, Fla.) and fire-polished. The pipette resistances ranged from 1 to 3 MΩ when the pipettes were filled with internal solution containing (in mM): 110 CsF, 10 NaCl, 5 MgCl2, 11 EGTA, 10 HEPES, pH adjusted to 7.4 with CsOH. Osmolality was set with a difference of 15-20 mmol/kg between external and internal solutions (lower inside the cell). Drugs and intervening wash-outs were applied through a linear array of flow pipes (Drummond Microcaps, 2 μL, 64-mm length). […] Currents were recorded at room temperature (22-25° C.), filtered at 5 kHz with an active 8-pole Bessel filter (Frequency Devices, Haverhill, Mass.), digitized at 10-50 μs intervals, and stored using Digidata 1200 analog/digital interface with Pclamp6/Clampex software (Axon Instruments). […] The inhibitory potency of drugs was assessed by measuring reductions in the peak amplitude of Na^+ currents induced by increasing concentrations of compounds tested. […]

[2] = test system: maximal electroshock-induced seizures (MES); assay: maximum electroshock seizure test (MES); type: in vivo; details: Mus musculus, iv; mice, injected i.v. 15 minutes before the test procedure; read-out: ED50 (the dose protecting 50% of animals), protection against MES
Description: The compounds of the present invention may be tested for in vivo anticonvulsant activity after i.v., p.o. or i.p. injection using a number of anticonvulsant tests in mice, including the maximum electroshock seizure test (MES). Maximum electroshock seizures were induced in male NSA mice weighing between 15-20 g and male Sprague-Dawley rats weighing between 200-225 g by application of current (50 mA, 60 pulses/sec, 0.8 msec pulse width, 1 sec duration, D.C., mice; 99 mA. 125 pulses/sec, 0.8 msec pulse width, 2 sec duration, D.C., rats) using a Ugo Basile FCT device (Model 7801). Mice were restrained by gripping the loose skin on their dorsal surface and saline-coated corneal electrodes were held lightly against the two corneae. Rats were allowed free movement on the bench top and ear-clip electrodes were used. […] A tonic seizure was defined as a hindlimb extension in excess of 90 degrees from the plane of the body. Results were treated in a quantal manner. The ability of N^3-[4-(4-fluorophenoxy)benzyl]pyridine-2,3-diamine to block maximal electroshock-iniduced seizures (MES) was determined according to the method above. N^3-[4-(4-Fluorophenoxy)benzyl]pyridine-2,3-diamine was injected i.v. to mice 15 minutes before the test procedure.

T1 sequence (P35499 whole entry, canonical isoform): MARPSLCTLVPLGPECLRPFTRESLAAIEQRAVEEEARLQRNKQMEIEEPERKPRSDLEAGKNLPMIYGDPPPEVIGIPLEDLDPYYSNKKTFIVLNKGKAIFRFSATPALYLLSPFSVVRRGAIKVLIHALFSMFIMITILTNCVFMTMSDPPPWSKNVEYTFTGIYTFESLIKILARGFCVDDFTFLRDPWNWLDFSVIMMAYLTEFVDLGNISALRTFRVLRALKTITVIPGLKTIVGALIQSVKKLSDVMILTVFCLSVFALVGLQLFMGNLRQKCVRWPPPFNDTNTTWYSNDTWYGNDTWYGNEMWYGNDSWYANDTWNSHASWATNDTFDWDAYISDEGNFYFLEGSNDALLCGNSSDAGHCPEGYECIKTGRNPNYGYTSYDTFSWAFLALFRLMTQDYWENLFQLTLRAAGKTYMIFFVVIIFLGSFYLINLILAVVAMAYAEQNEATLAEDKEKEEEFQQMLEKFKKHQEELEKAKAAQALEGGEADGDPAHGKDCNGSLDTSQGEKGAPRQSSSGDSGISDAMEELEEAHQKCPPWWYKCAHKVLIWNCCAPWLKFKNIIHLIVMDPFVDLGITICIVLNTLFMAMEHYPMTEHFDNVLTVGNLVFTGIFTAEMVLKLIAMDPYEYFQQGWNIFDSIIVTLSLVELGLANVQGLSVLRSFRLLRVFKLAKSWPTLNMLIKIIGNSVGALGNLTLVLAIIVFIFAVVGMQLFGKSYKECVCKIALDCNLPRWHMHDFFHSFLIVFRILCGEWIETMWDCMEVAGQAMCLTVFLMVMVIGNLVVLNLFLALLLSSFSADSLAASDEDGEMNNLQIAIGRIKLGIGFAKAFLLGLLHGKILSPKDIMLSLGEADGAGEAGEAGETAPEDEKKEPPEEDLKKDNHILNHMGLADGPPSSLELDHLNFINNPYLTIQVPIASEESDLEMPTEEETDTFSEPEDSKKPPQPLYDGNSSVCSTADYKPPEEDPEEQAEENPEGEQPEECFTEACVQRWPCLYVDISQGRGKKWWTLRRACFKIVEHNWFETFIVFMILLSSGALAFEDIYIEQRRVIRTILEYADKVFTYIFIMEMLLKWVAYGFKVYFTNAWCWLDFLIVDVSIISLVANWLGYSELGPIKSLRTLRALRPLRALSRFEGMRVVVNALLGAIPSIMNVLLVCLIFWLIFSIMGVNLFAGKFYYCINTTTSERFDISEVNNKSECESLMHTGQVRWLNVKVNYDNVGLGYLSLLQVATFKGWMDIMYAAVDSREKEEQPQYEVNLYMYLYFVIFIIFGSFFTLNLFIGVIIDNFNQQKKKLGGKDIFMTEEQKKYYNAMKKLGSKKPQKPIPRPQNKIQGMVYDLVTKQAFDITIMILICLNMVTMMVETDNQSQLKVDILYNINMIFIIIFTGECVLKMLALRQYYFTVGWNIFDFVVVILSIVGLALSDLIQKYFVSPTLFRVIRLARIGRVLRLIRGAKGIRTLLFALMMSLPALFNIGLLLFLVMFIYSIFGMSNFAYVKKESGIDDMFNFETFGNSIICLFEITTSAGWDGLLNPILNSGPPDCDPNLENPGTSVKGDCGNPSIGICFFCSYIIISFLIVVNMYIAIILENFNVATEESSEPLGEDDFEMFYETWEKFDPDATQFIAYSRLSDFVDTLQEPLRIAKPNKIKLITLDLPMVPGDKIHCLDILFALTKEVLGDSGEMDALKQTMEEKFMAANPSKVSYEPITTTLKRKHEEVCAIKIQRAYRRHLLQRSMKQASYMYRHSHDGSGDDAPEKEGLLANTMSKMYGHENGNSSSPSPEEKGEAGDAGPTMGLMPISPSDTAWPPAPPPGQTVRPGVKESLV

| SMILES | inhibition of voltage-gated sodium currents [1] | Ki ([1]; inactivated state, read-out: apparent antagonist dissociation constant Ki (the concentration of a compound that produces half maximal inhibition) for inactivated sodium channels) [µM] | potency towards Na+ channels in their resting states ([1]; resting state) | ED50 [2] [mg/kg] |
| --- | --- | --- | --- | --- |
| Nc1ncccc1NCc1ccc(Oc2ccc(F)cc2)cc1 [N^3-[4-(4-Fluorophenoxy)benzyl]pyridine-2,3-diamine] | dose-dependent inhibition | 0.06 | weak potency |  |
| Nc1ncccc1NCc1ccc(OCc2cccc(F)c2)cc1 [N^3-[4-(3-Fluorobenzyloxy)benzyl]pyridine-2,3-diamine] |  |  |  | 2.9 |
